Results from paper PMC10653547, “Synergistic effect of two antimicrobial peptides, BP203 and MAP-0403 J-2 with conventional antibiotics against colistin-resistant Escherichia coli and Klebsiella pneumoniae clinical isolates” (PLOS ONE, 2023).
Converted amounts (≈) assume the structure as drawn. Positions of bridges follow the written chain, without caps; N, C: chain ends. Non-standard residues stand in square brackets, D forms with d. Residues, ends and D or L forms follow the SMILES beside them. *: point of attachment. X1 = CC[C@H](C)CCCCC(=O)*; Dab = NCC[C@H](N)C(=O)O

Legend:
[1] = test system: colistin-resistant K. pneumoniae clinical isolates; test: Colistin susceptibility by broth microdilution (CLSI); assay type: cell-based, Klebsiella pneumoniae; conditions: for COL MIC: broth microdilution
Description: (§1) Ten non-duplicate clinical isolates of colistin-resistant E. coli (EC) and ten non-duplicate clinical isolates of colistin-resistant K. pneumoniae (KP) were obtained from the bacterial repository of the Division of Infectious Diseases and Tropical Medicine, Department of Medicine, Faculty of Medicine Siriraj Hospital, Mahidol University. The species identification was conducted through standard biochemical tests. Antimicrobial susceptibility testing was carried out using the disk diffusion method following CLSI guidelines. Additionally, the assessment of colistin resistance in all isolates was performed by broth microdilution following CLSI recommendations. […] The amino acid sequences of BP203 and MAP-0403 J-2 were retrieved from previous studies. These peptides are BP100 and MAP-0403 analogs, respectively. […] Antibiotic disks and defibrinated sheep blood were obtained from Oxoid (Basingstoke, UK). All culture media were purchased from Becton Dickinson (Frankin Lakes, NJ, USA). All chemicals were obtained from Sigma-Aldrich (St. Louis, MO, USA).

[2] = test system: colistin-resistant K. pneumoniae clinical isolates; test: Checkerboard assay for synergy testing; assay type: cell-based, Klebsiella pneumoniae
Description: (§2) The synergistic activities of various two-antimicrobial combinations against colistin-resistant E. coli and K. pneumoniae isolates were evaluated using the checkerboard assay, which was performed in 96-well plates. […] Two-fold serial dilutions of peptides and antibiotics were independently prepared in CAMHB. Afterward, a mixture of different concentrations of the antibiotics and peptides was added to the wells of the microplates. Antibiotics and peptides were also dispended alone in the first row and the first column, respectively. Bacterial inoculum was added to the 96-well plate to achieve a final concentration of 5 × 10^5 CFU/mL. Then, plates were incubated at 37 °C for 20–24 h. MICs were recorded as the minimum concentration of antimicrobial agents without bacterial growth. The interaction between the antimicrobials was determined by calculating the fractional inhibitory concentration index (FICI) according to the formula: FICI = FIC(drug A) + FIC(drug B), where FIC = the MIC of the drug when in the combination/MIC of drug tested individually.

[3] = test system: colistin-resistant E. coli clinical isolates; test: Checkerboard assay for synergy testing; assay type: cell-based, Escherichia coli
Description: as §2

[4] = test system: colistin-resistant E. coli clinical isolates; test: Colistin susceptibility by broth microdilution (CLSI); assay type: cell-based, Escherichia coli; conditions: for COL MIC: broth microdilution
Description: as §1

[5] = test system: MRC-5 (CCL-171) normal lung fibroblast cells; test: Cytotoxicity assay using MTT; assay type: cell-based, human; conditions: 24 h exposure
Description: MRC-5 (CCL-171) cell line, a representative of normal lung fibroblast cells, was used to investigate the cytotoxic effects of two AMPs, BP203 and MAP-0403 J-2. The cells were grown in Dulbecco’s Modified Eagle Medium (DMEM, Cytiva Life Sciences, Marlborough, MA, USA), supplemented with 10% fetal bovine serum (FBS), 1% penicillin (10,000 U/mL) and streptomycin (10,000 μg/mL) (Gibco, Waltham, MA, USA). 2×10^4 cells were seeded into each well of a 96-well plate and allowed to adhere for 24 h. Then, these cells were subjected to exposure to a medium containing a prepared two-fold serial dilution of BP203 or MAP-0403 J-2. […] 3-(4,5-Dimethylthiazol-2-yl)-2,5-Diphenyltetrazolium Bromide (MTT) was introduced into each well to achieve a concentration of 0.5 mg/mL followed by 4 h. incubation. Subsequently, formazan crystals were dissolved through the addition of 100 μL of a solubilizing solution composed of 10% SDS in 0.1 N HCl and the developed color was measured using a microtiter plate reader at an optical density (OD) of 570 nm. Cell viability was calculated as follows: (ODsample/ODcontrol) × 100.

[6] = checkerboard BP203 x colistin, KP-01
[7] = checkerboard BP203 x colistin, KP-02
[8] = checkerboard BP203 x colistin, KP-03
[9] = checkerboard BP203 x colistin, KP-04
[10] = checkerboard BP203 x colistin, KP-05
[11] = checkerboard BP203 x colistin, KP-06
[12] = checkerboard BP203 x colistin, KP-07
[13] = checkerboard BP203 x colistin, KP-08
[14] = checkerboard BP203 x colistin, KP-09
[15] = checkerboard BP203 x colistin, KP-10
[16] = checkerboard MAP-0403 J-2 x colistin, KP-01
[17] = checkerboard MAP-0403 J-2 x colistin, KP-02
[18] = checkerboard MAP-0403 J-2 x colistin, KP-03
[19] = checkerboard MAP-0403 J-2 x colistin, KP-04
[20] = checkerboard MAP-0403 J-2 x colistin, KP-05
[21] = checkerboard MAP-0403 J-2 x colistin, KP-06
[22] = checkerboard MAP-0403 J-2 x colistin, KP-07
[23] = checkerboard MAP-0403 J-2 x colistin, KP-08
[24] = checkerboard MAP-0403 J-2 x colistin, KP-09
[25] = checkerboard MAP-0403 J-2 x colistin, KP-10
[26] = checkerboard BP203 x colistin, EC-01
[27] = checkerboard BP203 x colistin, EC-02
[28] = checkerboard BP203 x colistin, EC-03
[29] = checkerboard BP203 x colistin, EC-04
[30] = checkerboard BP203 x colistin, EC-05
[31] = checkerboard BP203 x colistin, EC-06
[32] = checkerboard BP203 x colistin, EC-07
[33] = checkerboard BP203 x colistin, EC-08
[34] = checkerboard BP203 x colistin, EC-09
[35] = checkerboard BP203 x colistin, EC-10
[36] = checkerboard MAP-0403 J-2 x colistin, EC-01
[37] = checkerboard MAP-0403 J-2 x colistin, EC-02
[38] = checkerboard MAP-0403 J-2 x colistin, EC-03
[39] = checkerboard MAP-0403 J-2 x colistin, EC-04
[40] = checkerboard MAP-0403 J-2 x colistin, EC-05
[41] = checkerboard MAP-0403 J-2 x colistin, EC-06
[42] = checkerboard MAP-0403 J-2 x colistin, EC-07
[43] = checkerboard MAP-0403 J-2 x colistin, EC-08
[44] = checkerboard MAP-0403 J-2 x colistin, EC-09
[45] = checkerboard MAP-0403 J-2 x colistin, EC-10

## CC[C@H](C)CCCCC(=O)N[C@@H](CCN)C(=O)N[C@H](C(=O)N[C@@H](CCN)C(=O)N[C@H]1CCNC(=O)[C@H]([C@@H](C)O)NC(=O)[C@H](CCN)NC(=O)[C@H](CCN)NC(=O)[C@H](CC(C)C)NC(=O)[C@@H](CC(C)C)NC(=O)[C@H](CCN)NC1=O)[C@@H](C)O [COL, colistin] (X1-[Dab]T[Dab][Dab][Dab][dL]L[Dab][Dab]T; lactam 4-C)
[1]
  %Resistance: 100%
[1]; KP-01
  COL MIC: 4 µg/mL
[1]; KP-02
  COL MIC: 8 µg/mL
[1]; KP-03
  COL MIC: 32 µg/mL
[1]; KP-04
  COL MIC: 16 µg/mL
[1]; KP-05
  COL MIC: 16 µg/mL
[1]; KP-06
  COL MIC: 16 µg/mL
[1]; KP-07
  COL MIC: 64 µg/mL
[1]; KP-08
  COL MIC: 128 µg/mL
[1]; KP-09
  COL MIC: 32 µg/mL
[1]; KP-10
  COL MIC: 128 µg/mL
[1]; all K. pneumoniae isolates
  MICs, all isolates: ≥ 4 µg/mL
[2]; [6]
  MIC alone: 4 µg/mL
  MIC combination: 4 µg/mL
[2]; [7]
  MIC alone: 8 µg/mL
  MIC combination: 8 µg/mL
[2]; [8]
  MIC alone: 32 µg/mL
  MIC combination: 32 µg/mL
[2]; [9]
  MIC alone: 16 µg/mL
  MIC combination: 16 µg/mL
[2]; [10]
  MIC alone: 16 µg/mL
  MIC combination: 16 µg/mL
[2]; [11]
  MIC alone: 16 µg/mL
  MIC combination: 16 µg/mL
[2]; [12]
  MIC alone: 64 µg/mL
  MIC combination: 0.5 µg/mL
[2]; [13]
  MIC alone: 128 µg/mL
  MIC combination: 128 µg/mL
[2]; [14]
  MIC alone: 32 µg/mL
  MIC combination: 16 µg/mL
[2]; [15]
  MIC alone: 128 µg/mL
  MIC combination: 64 µg/mL
[2]; [16]
  MIC alone: 4 µg/mL
  MIC combination: 4 µg/mL
[2]; [17]
  MIC alone: 8 µg/mL
  MIC combination: 8 µg/mL
[2]; [18]
  MIC alone: 32 µg/mL
  MIC combination: 32 µg/mL
[2]; [19]
  MIC alone: 16 µg/mL
  MIC combination: 16 µg/mL
[2]; [20]
  MIC alone: 16 µg/mL
  MIC combination: 16 µg/mL
[2]; [21]
  MIC alone: 16 µg/mL
  MIC combination: 16 µg/mL
[2]; [22]
  MIC alone: 64 µg/mL
  MIC combination: 128 µg/mL
[2]; [23]
  MIC alone: 128 µg/mL
  MIC combination: 128 µg/mL
[2]; [24]
  MIC alone: 32 µg/mL
  MIC combination: 32 µg/mL
[2]; [25]
  MIC alone: 128 µg/mL
  MIC combination: 64 µg/mL
[3]; [26]
  MIC alone: 4 µg/mL
  MIC combination: 2 µg/mL
[3]; [27]
  MIC alone: 4 µg/mL
  MIC combination: 2 µg/mL
[3]; [28]
  MIC alone: 4 µg/mL
  MIC combination: 1 µg/mL
[3]; [29]
  MIC alone: 4 µg/mL
  MIC combination: 2 µg/mL
[3]; [30]
  MIC alone: 4 µg/mL
  MIC combination: 2 µg/mL
[3]; [31]
  MIC alone: 4 µg/mL
  MIC combination: 4 µg/mL
[3]; [32]
  MIC alone: 8 µg/mL
  MIC combination: 4 µg/mL
[3]; [33]
  MIC alone: 8 µg/mL
  MIC combination: 8 µg/mL
[3]; [34]
  MIC alone: 16 µg/mL
  MIC combination: 8 µg/mL
[3]; [35]
  MIC alone: 16 µg/mL
  MIC combination: 2 µg/mL
[3]; [36]
  MIC alone: 4 µg/mL
  MIC combination: 0.5 µg/mL
[3]; [37]
  MIC alone: 4 µg/mL
  MIC combination: 1 µg/mL
[3]; [38]
  MIC alone: 4 µg/mL
  MIC combination: 0.5 µg/mL
[3]; [39]
  MIC alone: 4 µg/mL
  MIC combination: 2 µg/mL
[3]; [40]
  MIC alone: 4 µg/mL
  MIC combination: 1 µg/mL
[3]; [41]
  MIC alone: 4 µg/mL
  MIC combination: 2 µg/mL
[3]; [42]
  MIC alone: 8 µg/mL
  MIC combination: 2 µg/mL
[3]; [43]
  MIC alone: 8 µg/mL
  MIC combination: 2 µg/mL
[3]; [44]
  MIC alone: 16 µg/mL
  MIC combination: 4 µg/mL
[3]; [45]
  MIC alone: 16 µg/mL
  MIC combination: 4 µg/mL
[4]
  %Resistance: 100%
[4]; EC-01
  COL MIC: 4 µg/mL
[4]; EC-02
  COL MIC: 4 µg/mL
[4]; EC-03
  COL MIC: 4 µg/mL
[4]; EC-04
  COL MIC: 4 µg/mL
[4]; EC-05
  COL MIC: 4 µg/mL
[4]; EC-06
  COL MIC: 4 µg/mL
[4]; EC-07
  COL MIC: 8 µg/mL
[4]; EC-08
  COL MIC: 8 µg/mL
[4]; EC-09
  COL MIC: 16 µg/mL
[4]; EC-10
  COL MIC: 16 µg/mL
[4]; all E. coli isolates
  MICs, all isolates: ≥ 4 µg/mL

## CC[C@H](C)[C@H](NC(=O)CN)C(=O)NCC(=O)N[C@@H](C)C(=O)N[C@H](C(=O)N[C@@H](CC(C)C)C(=O)N[C@@H](CCCCN)C(=O)N[C@H](C(=O)N[C@@H](CC(C)C)C(=O)N[C@H](C(=O)N[C@H](C(=O)NCC(=O)N[C@@H](CC(C)C)C(=O)N1CCC[C@H]1C(=O)N[C@@H](C)C(=O)N[C@@H](CC(C)C)C(=O)N[C@H](C(=O)N[C@@H](CO)C(=O)N[C@@H](Cc1c[nH]c2ccccc12)C(=O)N[C@H](C(=O)N[C@@H](CCCCN)C(=O)N[C@@H](CCCNC(=N)N)C(=O)N[C@@H](CCCCN)C(=O)N[C@@H](CCCNC(=N)N)C(=O)N[C@@H](CCC(N)=O)C(=O)N[C@@H](CCC(N)=O)C(N)=O)[C@@H](C)CC)[C@@H](C)CC)[C@@H](C)O)[C@@H](C)O)C(C)C)C(C)C [melittin]
[5]
  IC50: 16.13 µg/mL (≈ 5.67 µM)
